# Laboratory results published in ChEMBL document CHEMBL3286312, “Synthesis and structure-activity relationships of guaiane-type sesquiterpene lactone derivatives with respect to inhibiting NO production in lipopolysaccharide-induced RAW 264.7 macrophages” (Eur J Med Chem, 2014).
# pIC50: −log10 of the molar value.
# What was measured:
# RAW264.7 [1] = test: Antiinflammatory activity against mouse RAW264.7 cells assessed as inhibition of LPS-induced NO production at 25 uM after 18 hrs by Griess method relative to control; assay type: functional; details: RAW264.7, 18 h
# [2] = Cytotoxicity against mouse RAW264.7 cells assessed as cell survival rate up to 25 uM after 18 hrs by MTT assay relative to control; assay type: cell-based; details: read-out: Survival
# RAW264.7 [3] = test: Antiinflammatory activity against mouse RAW264.7 cells assessed as inhibition of LPS-induced NO production at after 18 hrs by Griess method relative to control; assay type: functional, cell-based; details: RAW264.7, 18 h
# RAW264.7 [4] = test: Cytotoxicity against mouse RAW264.7 cells assessed as reduction in cell survival rate after 18 hrs by MTT assay relative to control; assay type: cell-based; details: RAW264.7, 18 h
smiles,measurement,setting,value
CC1=C2C(C[C@@H]1OC(=O)c1ccc3ccccc3c1)[C@](C)(O)CC[C@H]1[C@H](C)C(=O)O[C@H]21 (stereo partly specified),inhibition at 25 µM,RAW264.7 [1],68.8%
same,viability at 18 h,[2],100%
same,pIC50,RAW264.7 [3],4.59
same,pIC50,RAW264.7 [4],4.05
CC1=C2C(C[C@@H]1OC(=O)c1ccc(OC(F)(F)F)cc1)[C@](C)(O)CC[C@H]1[C@H](C)C(=O)O[C@H]21 (stereo partly specified),inhibition at 25 µM,RAW264.7 [1],30.6%
same,viability at 18 h,[2],97.5%
CC1=C2C(C[C@@H]1OC(=O)c1ccc(C(C)C)cc1)[C@](C)(O)CC[C@H]1[C@H](C)C(=O)O[C@H]21 (stereo partly specified),inhibition at 25 µM,RAW264.7 [1],53.3%
same,viability at 18 h,[2],74.7%
N=C(N)NN [PIMAGEDINE],inhibition at 25 µM,RAW264.7 [1],83.8%
same,viability at 18 h,[2],100%
same,pIC50,RAW264.7 [3],5.06
CC1=C2C(C[C@@H]1O)[C@](C)(O)CC[C@H]1[C@H](C)C(=O)O[C@H]21 (stereo partly specified),inhibition at 25 µM,RAW264.7 [1],0%
same,viability at 18 h,[2],100%
CC1=C2C(C[C@@H]1OC(=O)c1ccc(C)cc1)[C@](C)(O)CC[C@H]1[C@H](C)C(=O)O[C@H]21 (stereo partly specified),inhibition at 25 µM,RAW264.7 [1],21.2%
same,viability at 18 h,[2],100%
CC1=C2C(C[C@@H]1OC(=O)/C=C/c1ccc(Br)cc1)[C@](C)(O)CC[C@H]1[C@H](C)C(=O)O[C@H]21 (stereo partly specified),inhibition at 25 µM,RAW264.7 [1],85.2%
same,viability at 18 h,[2],97.8%
same,pIC50,RAW264.7 [3],4.74
same,pIC50,RAW264.7 [4],4.22
CCCOc1ccc(/C=C/C(=O)O[C@H]2CC3C(=C2C)[C@H]2OC(=O)[C@@H](C)[C@@H]2CC[C@@]3(C)O)cc1 (stereo partly specified),inhibition at 25 µM,RAW264.7 [1],19.3%
same,viability at 18 h,[2],43.1%
CC1=C2C(C[C@@H]1OC(=O)c1ccc(C(F)(F)F)cc1)[C@](C)(O)CC[C@H]1[C@H](C)C(=O)O[C@H]21 (stereo partly specified),inhibition at 25 µM,RAW264.7 [1],20.4%
same,viability at 18 h,[2],100%
CC1=C2C(C[C@@H]1OC(=O)c1ccc3ncccc3c1)[C@](C)(O)CC[C@H]1[C@H](C)C(=O)O[C@H]21 (stereo partly specified),inhibition at 25 µM,RAW264.7 [1],23.2%
same,viability at 18 h,[2],100%
CC1=C2C(C[C@@H]1OC(=O)c1cccc3ccccc13)[C@](C)(O)CC[C@H]1[C@H](C)C(=O)O[C@H]21 (stereo partly specified),inhibition at 25 µM,RAW264.7 [1],79.6%
same,viability at 18 h,[2],67.4%
same,pIC50,RAW264.7 [3],5.16
same,pIC50,RAW264.7 [4],5.12
CC1=C2C(C[C@@H]1OC(=O)c1cccs1)[C@](C)(O)CC[C@H]1[C@H](C)C(=O)O[C@H]21 (stereo partly specified),inhibition at 25 µM,RAW264.7 [1],0%
same,viability at 18 h,[2],100%
CC1=C2C(C[C@@H]1OC(=O)/C=C/c1ccc(F)cc1)[C@](C)(O)CC[C@H]1[C@H](C)C(=O)O[C@H]21 (stereo partly specified),inhibition at 25 µM,RAW264.7 [1],31.6%
same,viability at 18 h,[2],100%
CC1=C2C(C[C@@H]1OC(=O)c1ccco1)[C@](C)(O)CC[C@H]1[C@H](C)C(=O)O[C@H]21 (stereo partly specified),inhibition at 25 µM,RAW264.7 [1],2.2%
same,viability at 18 h,[2],100%
CC1=C2C(CC1=O)[C@](C)(O)CC[C@H]1[C@H](C)C(=O)O[C@H]21 (stereo partly specified),inhibition at 25 µM,RAW264.7 [1],0%
same,viability at 18 h,[2],100%
CC1=C2C(C[C@@H]1OC(=O)c1ccc(F)cc1)[C@](C)(O)CC[C@H]1[C@H](C)C(=O)O[C@H]21 (stereo partly specified),inhibition at 25 µM,RAW264.7 [1],19.4%
same,viability at 18 h,[2],100%
COc1ccc(C(=O)O[C@H]2CC3C(=C2C)[C@H]2OC(=O)[C@@H](C)[C@@H]2CC[C@@]3(C)O)cc1 (stereo partly specified),inhibition at 25 µM,RAW264.7 [1],6.6%
same,viability at 18 h,[2],98%
CC1=C2C(C[C@@H]1OC(=O)/C=C/c1ccc(C(F)(F)F)cc1)[C@](C)(O)CC[C@H]1[C@H](C)C(=O)O[C@H]21 (stereo partly specified),inhibition at 25 µM,RAW264.7 [1],75.9%
same,viability at 18 h,[2],100%
same,pIC50,RAW264.7 [3],4.76
same,pIC50,RAW264.7 [4],4.26
CC(=O)O[C@]1(C)CC[C@H]2[C@H](C)C(=O)O[C@@H]2C2=C(C)[C@@H](O)CC21 (stereo partly specified),inhibition at 25 µM,RAW264.7 [1],0%
same,viability at 18 h,[2],100%
CC1=C2C(C[C@@H]1OC(=O)c1ccsc1)[C@](C)(O)CC[C@H]1[C@H](C)C(=O)O[C@H]21 (stereo partly specified),inhibition at 25 µM,RAW264.7 [1],6.7%
same,viability at 18 h,[2],93.9%
CC1=C2C(C[C@@H]1OC(=O)c1ccc(C(C)(C)C)cc1)[C@](C)(O)CC[C@H]1[C@H](C)C(=O)O[C@H]21 (stereo partly specified),inhibition at 25 µM,RAW264.7 [1],76.3%
same,viability at 18 h,[2],52.1%
same,pIC50,RAW264.7 [3],4.83
same,pIC50,RAW264.7 [4],4.54
CC(=O)O[C@]1(C)CC[C@H]2[C@H](C)C(=O)O[C@@H]2C2=C(C)C(=O)CC21 (stereo partly specified),inhibition at 25 µM,RAW264.7 [1],6.9%
same,viability at 18 h,[2],100%
CC1=C2C(C[C@@H]1OC(=O)c1ccccn1)[C@](C)(O)CC[C@H]1[C@H](C)C(=O)O[C@H]21 (stereo partly specified),inhibition at 25 µM,RAW264.7 [1],0%
same,viability at 18 h,[2],100%
CCCc1ccc(C(=O)O[C@H]2CC3C(=C2C)[C@H]2OC(=O)[C@@H](C)[C@@H]2CC[C@@]3(C)O)cc1 (stereo partly specified),inhibition at 25 µM,RAW264.7 [1],30.6%
same,viability at 18 h,[2],73.4%
CCc1ccc(C(=O)O[C@H]2CC3C(=C2C)[C@H]2OC(=O)[C@@H](C)[C@@H]2CC[C@@]3(C)O)cc1 (stereo partly specified),inhibition at 25 µM,RAW264.7 [1],26.3%
same,viability at 18 h,[2],85.2%
CC1=C2C(C[C@@H]1OC(=O)c1ccc(I)cc1)[C@](C)(O)CC[C@H]1[C@H](C)C(=O)O[C@H]21 (stereo partly specified),inhibition at 25 µM,RAW264.7 [1],46.5%
same,viability at 18 h,[2],93%
CCOc1ccc(/C=C/C(=O)O[C@H]2CC3C(=C2C)[C@H]2OC(=O)[C@@H](C)[C@@H]2CC[C@@]3(C)O)cc1 (stereo partly specified),inhibition at 25 µM,RAW264.7 [1],26.9%
same,viability at 18 h,[2],35.6%
CC1=C2C(C[C@@H]1OC(=O)/C=C/c1ccc(N(C)C)cc1)[C@](C)(O)CC[C@H]1[C@H](C)C(=O)O[C@H]21 (stereo partly specified),inhibition at 25 µM,RAW264.7 [1],44.5%
same,viability at 18 h,[2],100%
CC1=C2C(C[C@@H]1OC(=O)c1ccc(Br)cc1)[C@](C)(O)CC[C@H]1[C@H](C)C(=O)O[C@H]21 (stereo partly specified),inhibition at 25 µM,RAW264.7 [1],28.1%
same,viability at 18 h,[2],98.1%
CC1=C2C(C[C@@H]1OC(=O)/C=C/c1ccc([N+](=O)[O-])cc1)[C@](C)(O)CC[C@H]1[C@H](C)C(=O)O[C@H]21 (stereo partly specified),inhibition at 25 µM,RAW264.7 [1],45%
same,viability at 18 h,[2],92.5%
CC1=C2C(C[C@@H]1OC(=O)c1cccnc1)[C@](C)(O)CC[C@H]1[C@H](C)C(=O)O[C@H]21 (stereo partly specified),inhibition at 25 µM,RAW264.7 [1],6.1%
same,viability at 18 h,[2],86.9%
CC1=C2C(C[C@@H]1OC(=O)c1ccc([N+](=O)[O-])cc1)[C@](C)(O)CC[C@H]1[C@H](C)C(=O)O[C@H]21 (stereo partly specified),inhibition at 25 µM,RAW264.7 [1],1.8%
same,viability at 18 h,[2],100%
CCCCCc1ccc(C(=O)O[C@H]2CC3C(=C2C)[C@H]2OC(=O)[C@@H](C)[C@@H]2CC[C@@]3(C)O)cc1 (stereo partly specified),inhibition at 25 µM,RAW264.7 [1],29.8%
same,viability at 18 h,[2],79.3%
CC1=C2C(C[C@@H]1OC(=O)c1ccc(C#N)cc1)[C@](C)(O)CC[C@H]1[C@H](C)C(=O)O[C@H]21 (stereo partly specified),inhibition at 25 µM,RAW264.7 [1],6.6%
same,viability at 18 h,[2],100%
CC1=C2C(C[C@@H]1OC(=O)/C=C/c1ccc(Cl)cc1)[C@](C)(O)CC[C@H]1[C@H](C)C(=O)O[C@H]21 (stereo partly specified),inhibition at 25 µM,RAW264.7 [1],82%
same,viability at 18 h,[2],100%
same,pIC50,RAW264.7 [3],4.65
same,pIC50,RAW264.7 [4],4.23
CC1=C2C(C[C@@H]1OC(=O)/C=C/c1ccc(C)cc1)[C@](C)(O)CC[C@H]1[C@H](C)C(=O)O[C@H]21 (stereo partly specified),inhibition at 25 µM,RAW264.7 [1],58.8%
same,viability at 18 h,[2],100%
same,pIC50,RAW264.7 [3],4.54
same,pIC50,RAW264.7 [4],4.12
CC1=C2C(C[C@@H]1OC(=O)c1ccncc1)[C@](C)(O)CC[C@H]1[C@H](C)C(=O)O[C@H]21 (stereo partly specified),inhibition at 25 µM,RAW264.7 [1],2%
same,viability at 18 h,[2],100%
CC1=C2C(C[C@@H]1OC(=O)/C=C/c1ccc(C#N)cc1)[C@](C)(O)CC[C@H]1[C@H](C)C(=O)O[C@H]21 (stereo partly specified),inhibition at 25 µM,RAW264.7 [1],31.4%
same,viability at 18 h,[2],100%
CCCCc1ccc(C(=O)O[C@H]2CC3C(=C2C)[C@H]2OC(=O)[C@@H](C)[C@@H]2CC[C@@]3(C)O)cc1 (stereo partly specified),inhibition at 25 µM,RAW264.7 [1],33.2%
same,viability at 18 h,[2],72.6%
COc1ccc(/C=C/C(=O)O[C@H]2CC3C(=C2C)[C@H]2OC(=O)[C@@H](C)[C@@H]2CC[C@@]3(C)O)cc1 (stereo partly specified),inhibition at 25 µM,RAW264.7 [1],19.3%
same,viability at 18 h,[2],100%
CSc1ccc(/C=C/C(=O)O[C@H]2CC3C(=C2C)[C@H]2OC(=O)[C@@H](C)[C@@H]2CC[C@@]3(C)O)cc1 (stereo partly specified),inhibition at 25 µM,RAW264.7 [1],67.4%
same,viability at 18 h,[2],100%
same,pIC50,RAW264.7 [3],4.57
same,pIC50,RAW264.7 [4],< 4.00
CC1=C2C(C[C@@H]1OC(=O)c1ccc(Cl)cc1)[C@](C)(O)CC[C@H]1[C@H](C)C(=O)O[C@H]21 (stereo partly specified),inhibition at 25 µM,RAW264.7 [1],19.6%
same,viability at 18 h,[2],100%
